Test system: YAP
Test: YAP phosphorylation inhibitory action in SKOV3 (HTRF)
Assay type: cell-based, human
Conditions: 10 μM, 1 hr, non-treatment 100%
Experimental: Human ovarian cancer cell line SKOV3 (manufactured by DS Pharma Biomedical Co., Ltd.) was precultured using a 15% FBS-containing McCoy's 5a medium (manufactured by Sigma-Aldrich) (single layer culture). The above-mentioned cells in the logarithmic growth phase were washed with PBS. A 0.25% (w/v) trypsin-1 mmol/L ethylenediaminetetraacetic acid (EDTA) solution (manufactured by FUJIFILM Wako Pure Chemical Corporation) was added and the adherent cells were incubated at 37° C. for 3 min and detached. The above-mentioned medium was added, and the cells were centrifuged and resuspended in the same medium.
According to the method of patent document 1 (WO 2014/017513), a composition of 10% FBS-containing DMEM medium (Phenol-red free, manufactured by FUJIFILM Wako Pure Chemical Corporation) containing 0.015% (w/v) deacylated gellan gum (KELCOGEL CG-LA, manufactured by SANSHO Co., Ltd.) was prepared using FCeM-series Preparation Kit (manufactured by FUJIFILM Wako Pure Chemical Corporation). Then, various cells prepared above were suspended in the above-mentioned medium composition (3D culture conditions) added with deacylated gellan gum or a medium without the addition (2D culture conditions), and seeded on a 50 μL/well (manufactured by Corning Incorporated, a 96 well flat bottom plate, #3585, 2D culture conditions) or 25 μL/well (manufactured by Corning Incorporated, 96 well low adhesion flat bottom plate, #3474) at 100000 cells/well. The plate was allowed to stand at 37° C. in a 5% CO2 incubator, and the compound of the present invention diluted with the medium at 2 or 6 times the final concentration, DMSO, or the medium alone was added to the plate 3 hr after the seeding at 50 μL/well (2D culture conditions) or 5 μL/well (3D culture conditions) to make the final concentration of each compound 10 μM. After culture at 37° C. in a 5% CO2 incubator for 1 hr, the supernatant was aspirated, supplemented Lysis buffer (1-fold concentration, manufactured by Cisbio, YAP-total kit or YAP phospho-S27 kit) (50 μL) was added under 2D culture conditions, and supplemented Lysys buffer (4-fold concentration) (10 μL) was added to the culture supernatant under 3D conditions, and the mixture was stirred by a plate shaker for 30 min. Thereafter, the plate was centrifuged, 16 μL of the supernatant was transferred to a 384-well white plate (Corning, #4512), and each antibody solution (pYAP d2 antibody or Total-YAP d2 antibody, and pYAP Cryptate antibody or Total-YAP Cryptate antibody) included in the kit was added at 4 μL/well in total, and the mixture was allowed to stand at room temperature overnight. As a blank control, pYAP Cryptate antibody or Total-YAP Cryptate antibody alone was added to cells free of stimulation with compound and the mixture was treated in the same manner. The next day, the wavelengths at 665 nm and 615′ nm were measured in the HTRF mode of EnVision (manufactured by PerkinElmer).
The obtained signal was calculated as follows. Ratio=signal (665 nm)/signal (615 nm)×10000, ΔR=Signal(Ratio)−Background fluorescence, and the relative phosphorylated YAP amount or total YAP amount for each compound when ΔR of the compound non-addition group (non-treatment) is 100% is shown in Tables 7 and 8 (2D culture), and Tables 9 and 10 (3D culture). From the results, it was shown that the compound of the present zo invention has a YAP phosphorylation inhibitory action under both 2D and 3D culture conditions.

Compound | phosphorylated YAP amount (%) (2D culture conditions) | total YAP amount (%) (2D culture conditions) | phosphorylated YAP amount (%) (3D culture conditions) | total YAP amount (%) (3D culture conditions)
CC/C(=N\NC(=O)C(C)Nc1cccnc1)c1ccc(O)c(C)c1O (centres unmarked) [A-004, (E)-N′-(1-(2,4-dihydroxy-3-methylphenyl)propylidene)-2-(pyridin-3-ylamino)propanehydrazide] | 19 | 87 | 33 | 105
CC/C(=N\NC(=O)C(C)Nc1cncc(F)c1)c1ccc(O)c(C)c1O (centres unmarked) [A-007] | 16 | 91 | 21 | 96

Reference: patent US20220144775A1, “HYDRAZIDE COMPOUND AND KINASE INHIBITOR” (NISSAN CHEMICAL CORPORATION, priority 2019, published 2022)
